{"source": "patent US20110105326A1", "about": "“Method for Enhancing the Rainfastness of Glyphosate” (BASF SE, priority 2008, published 2011)", "type_in_all_cases": "in vivo", "key": {"[1]": {"system": "Echinochloa colonum (ECHCO)", "test": "herbicidal action with/without simulated rainfall after treatment, Echinochloa colonum", "conditions": "1500 g/ha diuron, 1080 g/ha glyphosate; for herbicidal action against Echinochloa colonum (ECHCO): control without simulated rainfall, Example 15.1", "experimental": "(§1) The enhancement of the rainfastness of glyphosate was determined via the herbicidal activity of the mixture comprising glyphosate and the respective rainfastness enhancing herbicidal component B as well as of the single herbicidal components in relation to simulated rainfall at different time intervals.\n(§2) The evaluation of the damage caused by the method and the compositions the according to the present invention and the single herbicidal components was carried out using a scale from 0 to 100%, compared to the untreated control plots. Here, 0 means no damage and 100 means complete destruction of the plants of a respective weed or crop species.\n(§3) The application was performed with a fixed spayer system with air pressurization and with a tank spray volume of two liters. The speed of the spray device over the plants was adjusted for a spray volume of 200 I/ha. The spray device was a spray barr with four nozzles from the type Teejet XR 11002VS with a space of 50 cm between each nozzle.\n(§4) The application was performed at a weed stage of 6 to 8 leaves. After the application of the formulated herbicides the leaves were washed through rain of 20 mm using a fixed rain simulator system at following time interval: 15 min, 30 min, 1, 2, 3, 4 and 6 hours after treatment."}, "[2]": {"system": "Brachiaria decumbens (BRADE)", "test": "herbicidal action with/without simulated rainfall after treatment, Brachiaria decumbens", "conditions": "1500 g/ha diuron, 1080 g/ha glyphosate; for herbicidal action against Brachiaria decumbens (BRADE): control without simulated rainfall, Example 17.1", "experimental": "as §1, §2, §3, §4"}, "[3]": {"system": "Ipomoea grandifolia (IPOGR)", "test": "herbicidal action with/without simulated rainfall after treatment, Ipomoea grandifolia", "conditions": "1500 g/ha diuron, 1080 g/ha glyphosate; for herbicidal action against Ipomoea grandifolia (IPOGR): control without simulated rainfall, Example 16.1", "experimental": "as §1, §2, §3, §4"}}, "data": [{"compound": "CN(C)C(=O)Nc1ccc(Cl)c(Cl)c1", "note": "[Diuron, diuron]", "values": [{"measurement": "herbicidal action against Echinochloa colonum (ECHCO)", "setting": "[1]; 1 DAA", "value": 0}, {"measurement": "herbicidal action against Echinochloa colonum (ECHCO)", "setting": "[1]; 2 DAA", "value": 0}, {"measurement": "herbicidal action against Echinochloa colonum (ECHCO)", "setting": "[1]; 3 DAA", "value": 2.66}, {"measurement": "herbicidal action against Echinochloa colonum (ECHCO)", "setting": "[1]; 7 DAA", "value": 61}, {"measurement": "herbicidal action against ECHCO", "setting": "[1]; simulated rainfall 30 min after treatment, 1 DAA, Example 15.2", "value": 0}, {"measurement": "herbicidal action against ECHCO", "setting": "[1]; simulated rainfall 30 min after treatment, 2 DAA, Example 15.2", "value": 0}, {"measurement": "herbicidal action against ECHCO", "setting": "[1]; simulated rainfall 30 min after treatment, 3 DAA, Example 15.2", "value": 6}, {"measurement": "herbicidal action against ECHCO", "setting": "[1]; simulated rainfall 30 min after treatment, 7 DAA, Example 15.2", "value": 75.33}, {"measurement": "herbicidal action against ECHCO", "setting": "[1]; simulated rainfall 2 hours after treatment, 1 DAA, Example 15.3", "value": 0}, {"measurement": "herbicidal action against ECHCO", "setting": "[1]; simulated rainfall 2 hours after treatment, 2 DAA, Example 15.3", "value": 0}, {"measurement": "herbicidal action against ECHCO", "setting": "[1]; simulated rainfall 2 hours after treatment, 3 DAA, Example 15.3", "value": 1.66}, {"measurement": "herbicidal action against ECHCO", "setting": "[1]; simulated rainfall 2 hours after treatment, 7 DAA, Example 15.3", "value": 58.33}, {"measurement": "herbicidal action against Brachiaria decumbens (BRADE)", "setting": "[2]; 1 DAA", "value": 0}, {"measurement": "herbicidal action against Brachiaria decumbens (BRADE)", "setting": "[2]; 2 DAA", "value": 0}, {"measurement": "herbicidal action against Brachiaria decumbens (BRADE)", "setting": "[2]; 3 DAA", "value": 0}, {"measurement": "herbicidal action against Brachiaria decumbens (BRADE)", "setting": "[2]; 7 DAA", "value": 11}, {"measurement": "herbicidal action against Brachiaria decumbens (BRADE)", "setting": "[2]; 14 DAA", "value": 78.33}, {"measurement": "herbicidal action against BRADE", "setting": "[2]; simulated rainfall 2 hours after treatment, 1 DAA, Example 17.2", "value": 0}, {"measurement": "herbicidal action against BRADE", "setting": "[2]; simulated rainfall 2 hours after treatment, 2 DAA, Example 17.2", "value": 0}, {"measurement": "herbicidal action against BRADE", "setting": "[2]; simulated rainfall 2 hours after treatment, 3 DAA, Example 17.2", "value": 0}, {"measurement": "herbicidal action against BRADE", "setting": "[2]; simulated rainfall 2 hours after treatment, 7 DAA, Example 17.2", "value": 56}, {"measurement": "herbicidal action against BRADE", "setting": "[2]; simulated rainfall 2 hours after treatment, 14 DAA, Example 17.2", "value": 100}, {"measurement": "herbicidal action against BRADE", "setting": "[2]; simulated rainfall 6 hours after treatment, 1 DAA, Example 17.3", "value": 0}, {"measurement": "herbicidal action against BRADE", "setting": "[2]; simulated rainfall 6 hours after treatment, 2 DAA, Example 17.3", "value": 0}, {"measurement": "herbicidal action against BRADE", "setting": "[2]; simulated rainfall 6 hours after treatment, 3 DAA, Example 17.3", "value": 0}, {"measurement": "herbicidal action against BRADE", "setting": "[2]; simulated rainfall 6 hours after treatment, 7 DAA, Example 17.3", "value": 30}, {"measurement": "herbicidal action against BRADE", "setting": "[2]; simulated rainfall 6 hours after treatment, 14 DAA, Example 17.3", "value": 100}, {"measurement": "herbicidal action against Ipomoea grandifolia (IPOGR)", "setting": "[3]; 1 DAA", "value": 0}, {"measurement": "herbicidal action against Ipomoea grandifolia (IPOGR)", "setting": "[3]; 2 DAA", "value": 0}, {"measurement": "herbicidal action against Ipomoea grandifolia (IPOGR)", "setting": "[3]; 3 DAA", "value": 1.33}, {"measurement": "herbicidal action against Ipomoea grandifolia (IPOGR)", "setting": "[3]; 7 DAA", "value": 7.33}, {"measurement": "herbicidal action against IPOGR", "setting": "[3]; simulated rainfall 15 min after treatment, 1 DAA, Example 16.2", "value": 0}, {"measurement": "herbicidal action against IPOGR", "setting": "[3]; simulated rainfall 15 min after treatment, 2 DAA, Example 16.2", "value": 1}, {"measurement": "herbicidal action against IPOGR", "setting": "[3]; simulated rainfall 15 min after treatment, 3 DAA, Example 16.2", "value": 3.33}, {"measurement": "herbicidal action against IPOGR", "setting": "[3]; simulated rainfall 15 min after treatment, 7 DAA, Example 16.2", "value": 21}, {"measurement": "herbicidal action against IPOGR", "setting": "[3]; simulated rainfall 30 min after treatment, 1 DAA, Example 16.3", "value": 0}, {"measurement": "herbicidal action against IPOGR", "setting": "[3]; simulated rainfall 30 min after treatment, 2 DAA, Example 16.3", "value": 0}, {"measurement": "herbicidal action against IPOGR", "setting": "[3]; simulated rainfall 30 min after treatment, 3 DAA, Example 16.3", "value": 3}, {"measurement": "herbicidal action against IPOGR", "setting": "[3]; simulated rainfall 30 min after treatment, 7 DAA, Example 16.3", "value": 16.66}, {"measurement": "herbicidal action against IPOGR", "setting": "[3]; simulated rainfall 2 hours after treatment, 1 DAA, Example 16.4", "value": 0}, {"measurement": "herbicidal action against IPOGR", "setting": "[3]; simulated rainfall 2 hours after treatment, 2 DAA, Example 16.4", "value": 0}, {"measurement": "herbicidal action against IPOGR", "setting": "[3]; simulated rainfall 2 hours after treatment, 3 DAA, Example 16.4", "value": 0.33}, {"measurement": "herbicidal action against IPOGR", "setting": "[3]; simulated rainfall 2 hours after treatment, 7 DAA, Example 16.4", "value": 11.66}, {"measurement": "herbicidal action against IPOGR", "setting": "[3]; simulated rainfall 6 hours after treatment, 1 DAA, Example 16.5", "value": 0}, {"measurement": "herbicidal action against IPOGR", "setting": "[3]; simulated rainfall 6 hours after treatment, 2 DAA, Example 16.5", "value": 1}, {"measurement": "herbicidal action against IPOGR", "setting": "[3]; simulated rainfall 6 hours after treatment, 3 DAA, Example 16.5", "value": 2}, {"measurement": "herbicidal action against IPOGR", "setting": "[3]; simulated rainfall 6 hours after treatment, 7 DAA, Example 16.5", "value": 25.55}]}]}
